# In US11925629B2, “Heterocyclic inhibitors of ERK1 and ERK2 and their use in the treatment of cancer” (Asana Biosciences, LLC, priority 2015, dated 2024):
# Assays:
# Assay type in all cases: cell-based, human
# [1] = tested on: HT-29 (colorectal carcinoma, B-RafV600E) cells; test: Cell proliferation (Alamar Blue) assay, HT-29; settings: Homo sapiens, HT-29, HT29 cells
# Summary of the method: (§1)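 Cells seeded at 5000/well and allowed 16-24 h at 37° C./5% CO2, then exposed to compound (typically 0.0005-10 uM, 3-fold serial dilutions) for 72 h. Viability was read by Alamar Blue fluorescence (ex 540/em 590 nm) after 1-3 h. IC50 came from a variable-slope sigmoidal dose-response fit.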
# [2] = tested on: HCT116 (colorectal carcinoma, K Ras G13D) cells; test: Cell proliferation (Alamar Blue) assay, HCT116; settings: Homo sapiens, HCT-116, HCT116 cells
# Summary of the method: as §1
# [3] = tested on: phosphorylation of RSK1(S380) (the downstream target of ERK1/2); test: Phospho-RSK1(S380) ELISA assay in HT-29 cells; settings: Homo sapiens, HT-29, HT29 cells, phospho-RSK1(S380); read-out: Mechanistic Cell Assay RSK1 Phos HT29 IC50
# Summary of the method: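 HT-29 colorectal carcinoma cells (B-RafV600E), plated overnight at 37° C./5% CO2, were treated with compound dilutions for 2 h. Lysates were analysed by phospho-RSK1(Ser380) sandwich ELISA with absorbance at 450 nm. IC50 came from a sigmoidal variable-slope dose-response fit.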
Compound,IC50 [1],IC50 [2],IC50 [3]
"CCC(COC)Nc1ncc(C)c(-n2ccc(C(=O)NC(CO)c3cccc(Cl)c3)c2)n1 (stereo not drawn) [Example 127, N-(1-(3-chloro-phenyl)-2-hydroxy-ethyl)-1-(2-((1-methoxy-butan-2-yl)amino)-5-methyl-pyrimidin-4-yl)-1H-pyrrole-3-carboxamide]",> 2500 nM,> 2500 nM,500 to 2500 nM
"Cc1cnc(NC2CCOC2)nc1-n1ccc(C(=O)NC(CO)c2ccccc2)c1 (stereo not drawn) [Example 128, N-(2-hydroxy-1-phenylethyl)-1-(5-methyl-2-((tetrahydro-furan-3-yl)amino)pyrimidin-4-yl)-1H-pyrrole-3-carboxamide]",500 to 2500 nM,> 2500 nM,500 to 2500 nM
"COc1cnc(Nc2ccc(F)cc2Cl)nc1-n1ccc(C(=O)NC(CO)c2ccccc2)c1 (stereo not drawn) [Example 129, 1-(2-((2-chloro-4-fluorophenyl)amino)-5-methoxy-pyrimidin-4-yl)-N-(2-hydroxy-1-phenylethyl)-1H-pyrrole-3-carboxamide]",> 2500 nM,> 2500 nM,500 to 2500 nM
"CCNc1ncc(C)c(-n2ccc(C(=O)NC(CO)c3ccccc3)c2)n1 (stereo not drawn) [Example 130, 1-(2-(ethyl-amino)-5-methyl-pyrimidin-4-yl)-N-(2-hydroxy-1-phenylethyl)-1H-pyrrole-3-carboxamide]",> 2500 nM,> 2500 nM,500 to 2500 nM
"Cc1cnc(Nc2ccc3c(c2)OCCO3)nc1-n1ccc(C(=O)NC(CO)c2ccccc2)c1 (stereo not drawn) [Example 131, 1-(2-((2,3-dihydro-benzo[b][1,4]dioxin-6-yl)-amino)-5-methyl-pyrimidin-4-yl)-N-(2-hydroxy-1-phenylethyl)-1H-pyrrole-3-carboxamide]",250 to 500 nM,250 to 500 nM,250 to 500 nM
"Cc1cnc(Nc2ccc3occc3c2)nc1-n1cnc(C(=O)NC(CO)c2cccc(Cl)c2)c1 (stereo not drawn) [Example 132, 1-(2-(benzo-furan-5-ylamino)-5-methyl-pyrimidin-4-yl)-N-(1-(3-chlorophenyl)-2-hydroxy-ethyl)-1H-imidazole-4-carboxamide]",500 to 2500 nM,500 to 2500 nM,500 to 2500 nM
"CC[C@@H](CO)Nc1ncc(C)c(-n2ccc(C(=O)N[C@H](CO)c3ccc(F)c(Cl)c3)c2)n1 [Example 133, N-((S)-1-(3-chloro-4-fluorophenyl)-2-hydroxy-ethyl)-1-(2-(((S)-1-hydroxy-butan-2-yl)amino)-5-methyl-pyrimidin-4-yl)-1H-pyrrole-3-carboxamide]",250 to 500 nM,500 to 2500 nM,250 to 500 nM
"Cc1cnc(Nc2ccc3c(c2)CCO3)nc1-n1ccc(C(=O)NC(CO)c2cccc(Cl)c2)c1 (stereo not drawn) [Example 137, N-(1-(3-chloro-phenyl)-2-hydroxy-ethyl)-1-(2-((2,3-dihydro-benzofuran-5-yl)-mino)-5-methyl-pyrimidin-4-yl)-1H-pyrrole-3-carboxamide]",250 to 500 nM,100 to 250 nM,100 to 250 nM
"Cc1cnc(Nc2ccc3c(c2)CCO3)nc1-n1ccc(C(=O)NC(CO)c2ccccc2)c1 (stereo not drawn) [Example 138, 1-(2-((2,3-dihydro-benzofuran-5-yl)amino)-5-methyl-pyrimidin-4-yl)-N-(2-hydroxy-1-phenylethyl)-1H-pyrrole-3-carboxamide]",100 to 250 nM,100 to 250 nM,100 to 250 nM
"Cc1cnc(Nc2ccc3c(c2)OCCO3)nc1-n1ccc(C(=O)NC(CO)c2cccc(Cl)c2)c1 (stereo not drawn) [Example 139, N-(1-(3-chloro-phenyl)-2-hydroxy-ethyl)-1-(2-((2,3-dihydro-benzo[b][1,4]dioxin-6-yl)amino)-5-methyl-pyrimidin-4-yl)-1H-pyrrole-3-carboxamide]",250 to 500 nM,100 to 250 nM,≤ 100 nM
"Cc1cnc(Nc2ccc3[nH]ncc3c2)nc1-n1ccc(C(=O)NC(CO)c2ccccc2)c1 (stereo not drawn) [Example 140, 1-(2-((1H-indazol-5-yl)amino)-5-methyl-pyrimidin-4-yl)-N-(2-hydroxy-1-phenylethyl)-1H-pyrrole-3-carboxamide]",500 to 2500 nM,500 to 2500 nM,> 2500 nM
"Cc1cnc(NC2CCCOC2)nc1-n1ccc(C(=O)NC(CO)c2ccccc2)c1 (stereo not drawn) [Example 141, N-(2-hydroxy-1-phenylethyl)-1-(5-methyl-2-((tetrahydro-2H-pyran-3-yl)amino)-pyrimidin-4-yl)-1H-pyrrole-3-carboxamide]",> 2500 nM,> 2500 nM,> 2500 nM
"COc1cc(F)ccc1Nc1ncc(C)c(-n2ccc(C(=O)NC(CO)c3cccc(Cl)c3)c2)n1 (stereo not drawn) [Example 142, N-(1-(3-chloro-phenyl)-2-hydroxy-ethyl)-1-(2-((4-fluoro-2-methoxy-phenyl)amino)-5-methyl-pyrimidin-4-yl)-1H-pyrrole-3-carboxamide]",500 to 2500 nM,500 to 2500 nM,250 to 500 nM
"COc1c(F)cccc1Nc1ncc(C)c(-n2ccc(C(=O)NC(CO)c3cccc(Cl)c3)c2)n1 (stereo not drawn) [Example 143, N-(1-(3-chloro-phenyl)-2-hydroxy-ethyl)-1-(2-((3-fluoro-2-methoxy-phenyl)amino)-5-methyl-pyrimidin-4-yl)-1H-pyrrole-3-carboxamide]",500 to 2500 nM,250 to 500 nM,250 to 500 nM
"CC[C@@H](CO)Nc1ncc(C)c(-n2ccc(C(=O)NC(CO)c3cccc(Cl)c3)c2)n1 (stereo partly drawn) [Example 146, N-(1-(3-chloro-phenyl)-2-hydroxy-ethyl)-1-(2-(((S)-1-hydroxy-butan-2-yl)amino)-5-methyl-pyrimidin-4-yl)-1H-pyrrole-3-carboxamide]",500 to 2500 nM,500 to 2500 nM,100 to 250 nM
"Cc1cnc(NC(CO)CO)nc1-n1ccc(C(=O)NC(CO)c2ccccc2)c1 (stereo not drawn) [Example 147, 1-(2-((1,3-dihydroxy-propan-2-yl)amino)-5-methyl-pyrimidin-4-yl)-N-(2-hydroxy-1-phenylethyl)-1H-pyrrole-3-carboxamide]",> 2500 nM,> 2500 nM,> 2500 nM
"COc1ccc(Nc2ncc(C)c(-n3ccc(C(=O)NC(CO)c4ccccc4)c3)n2)cc1OCCN1CCN(C)CC1 (stereo not drawn) [Example 148, N-(2-hydroxy-1-phenylethyl)-1-(2-((4-methoxy-3-(2-(4-methyl-piperazin-1-yl)ethoxy)-phenyl)amino)-5-methyl-pyrimidin-4-yl)-1H-pyrrole-3-carboxamide]",500 to 2500 nM,500 to 2500 nM,500 to 2500 nM
"Cc1cnc(Nc2ccc(F)cc2Cl)nc1-n1ccc(C(=O)NC(COC(=O)C(N)CC(C)C)c2ccccc2)c1 (stereo not drawn) [Example 150, 2-(1-(2-((2-chloro-4-fluorophenyl)-amino)-5-methyl-pyrimidin-4-yl)-1H-pyrrole-3-carboxamido)-2-phenylethyl 2-amino-4-methyl-pentanoate]",> 2500 nM,> 2500 nM,500 to 2500 nM
"Cc1cnc(NC2CCOC2)nc1-n1ccc(C(=O)N[C@H](CO)c2cccc(Cl)c2)c1 (stereo partly drawn) [Example 151, N-((S)-1-(3-chlorophenyl)-2-hydroxy-ethyl)-1-(5-methyl-2-((tetrahydro-furan-3-yl)amino)pyrimidin-4-yl)-1H-pyrrole-3-carboxamide]",≤ 100 nM,500 to 2500 nM,100 to 250 nM
